{"source": "patent US8173684B2", "about": "“Pyridone derivatives as p38α MAPK inhibitors” (Astellas Pharma Inc., priority 2007, dated 2012)", "data": [{"system": "TNF-α production in THP-1 cells", "test": "Test 1: Inhibition of TNF-α production in THP-1 cells", "assay_type": "cell-based", "conditions": "Homo sapiens; 100 nM test compound; LPS (10 μg/mL) stimulated THP-1 cells, 20 hr; TNF-α in supernatant vs 0.1% DMSO control", "experimental": "Test 1: Inhibition of TNF-α Production in THP-1 Cells\nTHP-1 cells, a human monocytic cell line, were maintained in RPMI 1640 (Sigma R8758) supplemented with penicillin (50 U/mL), streptomycin (50 μg/mL) and 10% fetal bovine serum (Moregate BioTech.) at 37° C., 5% CO2 in a humidified incubator. Initial stock solutions of test compounds were made in DMSO. All cells, reagents and test compounds were diluted into culture media. THP-1 cells (1×10^5 cells/well final) and lipopolysaccharide (LPS; 10 μg/mL final; Sigma L-4005, from E. coli serotype 0.55:B5) were added to 96 well polypropylene culture plates (Sumilon, MS-8196F5; sterile) containing test compound or 0.1% DMSO vehicle. The cell mixture was incubated for 20 hr in a humidified incubator at 37° C., 5% CO2. The culture supernatants were harvested and TNF-α levels from LPS stimulated cells in the presence of 100 nM test compound was calculated compared with control cells stimulated in the presence of 0.1% DMSO.", "units": {"inhibition at 0.1 µM": "%"}, "values": [{"smiles": "O=C(Nc1cc(C(=O)NC2CC2)ccc1Cl)c1ccc(=O)n(-c2c(Cl)cccc2Cl)c1", "note": "[Example 1, N-{2-chloro-5-[(cyclopropylamino)carbonyl]phenyl}-1-(2,6-dichlorophenyl)-6-oxo-1,6-dihydro-3-pyridinecarboxamide]", "inhibition at 0.1 µM": 77}, {"smiles": "CONC(=O)c1ccc(Cl)c(NC(=O)c2ccc(=O)n(-c3c(Cl)cccc3Cl)c2)c1", "note": "[Example 2, N-{2-Chloro-5-[(methoxyamino)carbonyl]phenyl}-1-(2,6-dichlorophenyl)-6-oxo-1,6-dihydro-3-pyridinecarboxamide]", "inhibition at 0.1 µM": 84}, {"smiles": "O=C(Nc1ccon1)c1ccc(Cl)c(NC(=O)c2ccc(=O)n(-c3c(Cl)cccc3Cl)c2)c1", "note": "[Example 3, N-{2-Chloro-5-[(isoxazol-3-ylamino)carbonyl]phenyl}-1-(2,6-dichlorophenyl)-6-oxo-1,6-dihydro-3-pyridinecarboxamide]", "inhibition at 0.1 µM": 94}, {"smiles": "Cn1ccc(NC(=O)c2ccc(Cl)c(NC(=O)c3ccc(=O)n(-c4c(Cl)cccc4Cl)c3)c2)n1", "note": "[Example 5, N-{2-Chloro-5-[(1-methyl-1H-pyrazol-3-ylamino)carbonyl]phenyl}-1-(2,6-dichlorophenyl)-6-oxo-1,6-dihydro-3-pyridinecarboxamide]", "inhibition at 0.1 µM": 75}, {"smiles": "Cn1nccc1NC(=O)c1ccc(Cl)c(NC(=O)c2ccc(=O)n(-c3c(Cl)cccc3Cl)c2)c1", "note": "[Example 6, N-{2-Chloro-5-[(1-methyl-1H-pyrazol-5-ylamino)carbonyl]phenyl}-1-(2,6-dichlorophenyl)-6-oxo-1,6-dihydro-3-pyridinecarboxamide]", "inhibition at 0.1 µM": 82}, {"smiles": "O=C(Nc1cc(C(=O)NC2CC2)ccc1Br)c1ccc(=O)n(-c2c(F)cccc2F)c1", "note": "[Example 15, N-{2-Bromo-5-[(cyclopropylamino)carbonyl]phenyl}-1-(2,6-difluorophenyl)-6-oxo-1,6-dihydro-3-pyridinecarboxamide]", "inhibition at 0.1 µM": 69}, {"smiles": "O=C(Nc1cc(C(=O)NC2CC2)ccc1Cl)c1ccc(=O)n(-c2c(F)cccc2Cl)c1", "note": "[Example 16, N-{2-Chloro-5-[(cyclopropylamino)carbonyl]phenyl}-1-(2-chloro-6-fluorophenyl)-6-oxo-1,6-dihydro-3-pyridinecarboxamide]", "inhibition at 0.1 µM": 72}, {"smiles": "O=C(Nc1cc(C(=O)NC2CC2)ccc1Cl)c1ccc(=O)n(-c2cccc(F)c2F)c1", "note": "[Example 17, N-{2-Chloro-5-[(cyclopropylamino)carbonyl]phenyl}-1-(2,3-difluorophenyl)-6-oxo-1,6-dihydro-3-pyridinecarboxamide]", "inhibition at 0.1 µM": 75}, {"smiles": "Cc1ccc(C(=O)NC2CC2)cc1NC(=O)c1ccc(=O)n(-c2c(Cl)cccc2Cl)c1", "note": "[Example 18, N-{5-[(cyclopropylamino)carbonyl]-2-methylphenyl}-1-(2,6-dichlorophenyl)-6-oxo-1,6-dihydro-3-pyridinecarboxamide]", "inhibition at 0.1 µM": 78}, {"smiles": "Cc1ccc(C(=O)NC2CC2)cc1NC(=O)c1ccc(=O)n(C(C)(C)C)c1", "note": "[Example 20, N-{5-[(cyclopropylamino)carbonyl]-2-methylphenyl}-1-tert-butyl-6-oxo-1,6-dihydro-3-pyridinecarboxamide]", "inhibition at 0.1 µM": 85}, {"smiles": "Cc1ccc(C(=O)NC2CC2)cc1NC(=O)c1ccc(=O)n(-c2c(F)cccc2F)c1", "note": "[Example 22, N-{5-[(Cyclopropylamino)carbonyl]-2-methylphenyl}-1-(2,6-difluorophenyl)-6-oxo-1,6-dihydro-3-pyridinecarboxamide]", "inhibition at 0.1 µM": 97}, {"smiles": "Cc1ccc(C(=O)NC2CC2)cc1NC(=O)c1ccc(=O)n(C(C)c2ccccc2)c1", "note": "(centres unmarked) [Example 24, N-{5-[(Cyclopropylamino)carbonyl]-2-methylphenyl}-1-(1-phenylethyl)-6-oxo-1,6-dihydro-3-pyridinecarboxamide]", "inhibition at 0.1 µM": 83}, {"smiles": "Cc1ccc(NC(=O)C2CC2)cc1NC(=O)c1ccc(=O)n(-c2c(Cl)cccc2Cl)c1", "note": "[Example 25, N-{5-[(cyclopropylcarbonyl)amino]-2-methylphenyl}-1-(2,6-dichlorophenyl)-6-oxo-1,6-dihydro-3-pyridinecarboxamide]", "inhibition at 0.1 µM": 70}, {"smiles": "Cc1ccc(-n2nc(C(C)(C)C)cc2NC(=O)Nc2ccc(C)c(NC(=O)c3ccc(=O)n(-c4c(Cl)cccc4Cl)c3)c2)cc1", "note": "[Example 26, N-[5-[({[3-tert-butyl-1-(4-methylphenyl)-1H-pyrazol-5-yl]amino]carbonyl)amino]-2-methylphenyl}-1-(2,6-dichlorophenyl)-6-oxo-1,6-dihydro-3-pyridinecarboxamide]", "inhibition at 0.1 µM": 68}]}]}
